Test results: patent US20230174488A1 (priority 2020, published 2023)

Biological target: SARS-CoV-2 M^PRO (Severe acute respiratory syndrome coronavirus 2, UniProt P0DTD1)
Test: biochemical
Format: biochemical
Conditions: In vitro potency data; 30 min pre-incubation, 25 nM M^pro, 25 µM substrate; read-out: IC50

O=C(NC1CCC(F)(F)CC1)[C@@H](c1cncnc1)N(C(=O)CCl)c1ccc(-c2ccns2)cc1
IC50: 60 nM

O=C(NC1CCC(F)(F)CC1)[C@H](c1cncnc1)N(C(=O)CCl)c1ccc(-c2ccns2)cc1
IC50: 190 nM

N#Cc1cc(OC(F)(F)F)ccc1N(C(=O)C(F)Cl)C(C(=O)NC1CCC(F)(F)CC1)c1cncnc1 (mixture of isomers) [INSCoV-517C, 2-Chloro-N-(2-cyano-4-(trifluoromethoxy)phenyl)-N-(2-((4,4-difluorocyclohexyl)amino)-2-oxo-1-(pyrimidin-5-yl)ethyl)-2-fluoroacetamide]
IC50: 110 nM

O=C(NC1CCC(F)(F)CC1)[C@H](c1cnccn1)N(C(=O)CCl)c1ccc(-c2ccno2)cc1 (racemic) [INSCoV-601H, 2-Chloro-N-(2-((4,4-difluorocyclohexyl)amino)-2-oxo-1-(pyrazin-2-yl)ethyl)-N-(4-(isoxazol-5-yl)phenyl)acetamide]
IC50: 100 nM

O=C(NC1CCC(F)(F)CC1)C(c1ccnnc1)N(C(=O)CCl)c1ccc(-c2ccns2)cc1 (racemic) [INSCoV-601J]
IC50: 120 nM

O=C(N[C@H]1CCOC1)C(c1cnccn1)N(C(=O)CCl)c1ccc(-c2ccno2)cc1 (mixture of isomers) [INSCoV-601Q, 2-Chloro-N-(4-(isoxazol-5-yl)phenyl)-N-(2-oxo-1-(pyrazin-2-yl)-2-(((S)-tetrahydrofuran-3-yl)amino)ethyl)acetamid]
IC50: 150 nM

CC(C)(C)c1ccc(N(C(=O)CCl)C(C(=O)NC2CCCCC2)c2cccnc2)cc1 (single isomer, unassigned) [INSCoV-110A(1), 2-(4-tert-butyl-N-(2-chloroacetyl)anilino)-N-cyclohexyl-2-(3-pyridyl)acetamide]
IC50: 1980 nM

CC(C)(C)c1ccc(N(C(=O)CCl)C(C(=O)NC2CCCCC2)c2cccnc2)cc1 (single isomer, unassigned) [INSCoV-110A(2), 2-(4-tert-butyl-N-(2-chloroacetyl)anilino)-N-cyclohexyl-2-(3-pyridyl)acetamide]
IC50: 2150 nM

N#Cc1cc(OC(F)(F)F)ccc1N(C(=O)CCl)C(C(=O)NC1CCC(F)(F)CC1)c1cncnc1 (single isomer, unassigned) [INSCoV-517A(1A), 2-Chloro-N-(2-cyano-4-(trifluoromethoxy)phenyl)-N-(2-((4,4-difluorocyclohexyl)amino)-2-oxo-1-(pyrimidin-5-yl)ethyl)acetamide]
IC50: 30 nM

N#Cc1cc(OC(F)(F)F)ccc1N(C(=O)CCl)C(C(=O)NC1CCC(F)(F)CC1)c1cncnc1 (single isomer, unassigned) [INSCoV-517A(1B), 2-Chloro-N-(2-cyano-4-(trifluoromethoxy)phenyl)-N-(2-((4,4-difluorocyclohexyl)amino)-2-oxo-1-(pyrimidin-5-yl)ethyl)acetamide]
IC50: 3250 nM

N#Cc1cc(OC(F)(F)F)ccc1N(C(=O)C(F)Cl)C(C(=O)NC1CCC(F)(F)CC1)c1cncnc1 (single isomer, unassigned) [INSCoV-517C(1), 2-Chloro-N-(2-cyano-4-(trifluoromethoxy)phenyl)-N-(2-((4,4-difluorocyclohexyl)amino)-2-oxo-1-(pyrimidin-5-yl)ethyl)-2-fluoroacetamide]
IC50: 11200 nM

N#Cc1cc(OC(F)(F)F)ccc1N(C(=O)[C@H](F)Cl)[C@@H](C(=O)NC1CCC(F)(F)CC1)c1cncnc1 (single isomer, unassigned) [INSCoV-517C(2), 2-Chloro-N-(2-cyano-4-(trifluoromethoxy)phenyl)-N-(2-((4,4-difluorocyclohexyl)amino)-2-oxo-1-(pyrimidin-5-yl)ethyl)-2-fluoroacetamide]
IC50: 11400 nM

N#Cc1cc(OC(F)(F)F)ccc1N(C(=O)C(F)Cl)C(C(=O)NC1CCC(F)(F)CC1)c1cncnc1 (single isomer, unassigned) [INSCoV-517C(3), 2-Chloro-N-(2-cyano-4-(trifluoromethoxy)phenyl)-N-(2-((4,4-difluorocyclohexyl)amino)-2-oxo-1-(pyrimidin-5-yl)ethyl)-2-fluoroacetamide]
IC50: 70 nM
